{
  "source": "patent US20240082398A1",
  "about": "“METHODS OF PREPARING AND EXPANDING TYPE I INNATE LYMPHOID CELLS AND THERAPEUTIC USES THEREOF” (City of Hope, priority 2021, published 2024)",
  "key": {"[1]": {"test_system": "mouse LSCs (Lin^−Sca-1^+c-Kit^+)", "experiment": "LSCs and ILC1s in vitro co-culture assay (LSC apoptosis), mouse", "format": "cell-based", "conditions": "recombinant murine cytokine instead of ILC1s, indicated doses, 3-4 days", "procedure": "A total of 2,000 LSCs from AML patients labeled with CTV were co-cultured with different numbers of human ILC1s supplemented with human IL-12 (10 ng/ml) and IL-15 (100 ng/ml). After 3 days of co-culture, cells were harvested and analyzed by flow cytometry. 7-AAD was used to identify dead cells. For mouse LSCs co-culture assay, 2,000 LSCs from Mll^PTD/WT/Flt3^ITD/ITD mice labeled with CTV were co-cultured with different numbers of mouse ILC1s supplemented with mouse IL-12 (10 ng/ml) and IL-15 (100 ng/ml). After 3 days of co-culture, cells were harvested and analyzed by flow cytometry. 7-AAD was used to identify the dead cells. For the co-culture of LSCs and ILC1s using the transwell co-culture system, 2,000 human or mouse LSCs were seeded in the lower chamber while different numbers of human or mouse ILC1s were seeded in the upper chamber. After 3 days, cells were harvested and analyzed by flow cytometry. 7-AAD was used to identify the dead cells. For co-culture assay with cytokines and antibodies, 2,000 human or mouse LSCs were co-cultured with different doses of human or mouse TNF-α, IFN-γ, anti-TNF-α (10 μg/ml) Ab, or anti-IFN-γ Ab (10 μg/ml). Three days after the co-culture, cells were harvested and analyzed by flow cytometry. 7-AAD was used to identify the dead cells.\nFor human LSC co-culture assays, LSCs from patients with AML were labeled with […] CTV and co-cultured in the presence of human IL-12 (10 ng/ml) and IL-15 (100 ng/ml) with various numbers of ILC1s isolated from peripheral blood of healthy donors or patients with AML. […] For all co-culture assays, cells were harvested after 3 days and analyzed using flow cytometry. […]\nILC1s were co-cultured with LSCs at a ratio of 1:1 or 1:2 for 6 h. […] Plates were then shaken at 300 rpm for 1 min, incubated for 60 min at room temperature, and then read on a luminometer (Promega, Glomax). Background luminescence was determined with 100 μl of culture medium without cells and subtracted before fold changes were calculated."}, "[2]": {"test_system": "LS^−K^+ leukemia progenitor cells", "experiment": "Differentiation of sorted leukemia progenitor cells into myeloid blasts", "format": "cell-based, mouse", "conditions": "treated 5 days, among the groups", "procedure": "The process of LSC differentiation into AML blasts includes transitions from LSCs to LS^−K^+ leukemia progenitor cells, and from LS^−K^+ leukemia progenitor cells to AML blasts. To investigate which part of the process was affected by ILC1 and IFN-γ, LS^−K^+ leukemia progenitor cells were sorted from Mll^PTD/WT/Flt3^ITD/ITD AML mice, then the LS^−K^+ leukemia progenitor cells were treated with WT ILC1, ILC1s, or recombinant IFN-γ for 5 days. […] Thus, ILC1s block LSC differentiation into AML blasts, likely via a process involving by IFN-γ, during the transition from LSCs into LS^−K^+ leukemia progenitor cells, upstream of progenitor cell differentiation into AML blasts (FIG. 9D).\nLSCs transition into LS^−K^+ leukemia progenitor cells before becoming AML blasts."}, "[3]": {"test_system": "mouse LSCs", "experiment": "RNA-seq of LSCs after ILC1 co-culture or IFN-γ treatment", "format": "cell-based", "conditions": "vs untreated LSCs", "procedure": "For mouse ILC1 RNA-sequencing, mouse ILC1s were sorted from the liver of normal mice or mice with AML using BD FACSAria™ Fusion. […] Total RNA was isolated from ILC1s or LSCs using a miRNeasy mini kit (QIAGEN). PolyA RNA-seq was performed in the Integrative Genomics Core of City of Hope National Medical Center. SMART-Seq® Ultra Low Input RNA Kit for Sequencing-v4 (Takara Bio) was used for getting double-strand cDNA from each sample with 2 ng of input total RNA. The resulting cDNA was sheared using a Covaris LE220 sonicator. The sheared DNA was used for to prepare a sequencing library, using a KAPA HyperPrep Kit. The final libraries were quantified using the Qubit Assay Kit (Thermo Fisher Scientific) and Bioanalyzer (Agilent). Sequencing was performed using the single-read mode of 51 cycles of read1 and 7 cycles of index read with V4 reagents on a Hiseq 2500 system (Illumina). Real-time analysis (RTA) 2.2.38 software was used to process the image analysis and base calling.\n2,000 mouse LSCs were co-cultured with 1,000 ILC1s or treated with 1 ng/ml IFN-γ for 3 days, and then the LSCs were sorted using BD FACSAria Fusion. Total RNA of LSCs were isolated using miRNeasy mini kit (QIAGEN). SMART-Seq® Ultra Low Input RNA Kit for Sequencing-v4 was used for generating amplified double strand cDNA from each sample with 2 ng of input total RNA according to the manufacturer's protocol. The resulting double-stranded cDNA sheared with Covaris LE220 with the setting of DNA fragment size of 200 bp peak. The sheared DNA was used for sequencing library preparation by using KAPA HyperPrep Kits. The final libraries were quantified with qubit and bioanalyzer. The sequencing was performed with the single read mode of 51 cycles of read1 and 7 cycles of index read with V4 reagents on Hiseq2500. Real-time analysis (RTA) 2.2.38 software was used to process the image analysis and base calling.\nPrism software v.8 (GraphPad, CA, USA) was used to perform statistical analysis. Two group comparisons were performed with a two-tailed Student's t-test; multiple group comparisons were performed with a one-way ANOVA test with a multiple comparisons option. For Kaplan-Meier survival curve analysis, the comparisons were performed using a log-rank (Mantel-Cox) test. For continuous endpoints, Student's t test was used to compare two independent conditions, and one-way ANOVA models were used to compare three or more independent conditions. For repeated measures over time, linear mixed models were used to account for the variance and covariance structure. Mouse survival was estimated by the Kaplan-Meier method and compared by log-rank tests. All tests were two-sided. P values were adjusted for multiple comparisons by Holm's procedure. For RNA-seq analysis, sequencing reads were trimmed from sequencing adapters using Trimmomatic^74 and polyA tails using FASTPT^75, and then mapped back to the mouse genome (mm10) using STAR (v. 020201)^76. The gene-level count table was created by HTSeq (v.0.6.0)^77 and normalized by the TMM^78 method. General linear models based on negative binomial distributions (R package “EdgeR”) were used to compare gene expression levels between two specific cell types. […] Pathway and gene set enrichment analyses were performed using the GSEA^79,80 program, which runs the GSEAPreranked algorithm on a ranked list of genes. Data are presented as mean±SD. Prism software v.8 (GraphPad, CA, USA) and SAS v.9.4 (SAS Institute. NC, USA) were used to perform statistical analyses. The p-values are represented as: *<0.05, **<0.01, ***<0.001, and ****<0.0001"}},
  "note": "Entries after “also recorded” stand apart in the source; their conditions may differ.",
  "data": [
    {"substance": "recombinant murine IFN-γ: animal-free recombinant murine IFN-γ cytokine", "values": [
      {"measurement": "LSC apoptosis on treatment with recombinant cytokine", "setting": "[1]", "value": "We observed LSC apoptosis with IFN-γ"},
      {"measurement": "LSC apoptosis on treatment with recombinant cytokine", "setting": "[1]; listed as IFN-γ", "value": "induces apoptosis of LSCs"},
      {"measurement": "LSC apoptosis on treatment with recombinant cytokine", "setting": "[1]; listed as Recombinant murine IFN-γ", "value": "induced LSC apoptosis"},
      {"measurement": "percentage of Mac-1^+ and Gr-1^+ cells from LS^−K^+ leukemia progenitor cells", "setting": "[2]", "value": "do not affect the differentiation of leukemia progenitor cells into myeloid blasts"},
      {"measurement": "percentage of Mac-1^+ and Gr-1^+ cells from LS^−K^+ leukemia progenitor cells", "setting": "[2]; listed as recombinant IFN-γ", "value": "no statistical difference; also recorded: remained constant"},
      {"measurement": "E2F targets, G2M checkpoints, MYC targets and mitotic spindle pathways in LSCs (GSEA)", "setting": "[3]", "value": "significant suppression; also recorded: significantly suppressing"},
      {"measurement": "JAK-STAT and PI3K-AKT signaling pathways in LSCs", "setting": "[3]", "value": "activation of the JAK-STAT and PI3K-AKT signaling pathways"},
      {"measurement": "apoptotic pathways in LSCs (GSEA)", "setting": "[3]", "value": "activated apoptotic pathways"},
      {"measurement": "expression of Akt3, Jak2, Stat1/2, Irf1/2/7/8/9 and Socs1 in LSCs", "setting": "[3]", "value": "increased expression"},
      {"measurement": "expression of genes associated with lymphoid differentiation (Gimap4, Gpb4, Irf8, Irf1)", "setting": "[3]", "value": "increased expression"},
      {"measurement": "expression of genes associated with myeloid differentiation (S100a8/S100a9, Chil3, Serpinb1a, Slc28a2)", "setting": "[3]", "value": "reduced their expression"}
    ]}
  ]
}
